Data: ChEMBL document CHEMBL3232931 (J Med Chem, 2014)

How the values were obtained:
SARS-CoV = assay: Antiviral activity against SARS coronavirus infected in african green monkey Vero E6 cells assessed as cell viability after 48 hrs by Cell Titer-Glo luminescent assay; assay type: functional, organism-based; conditions: Severe acute respiratory syndrome-related coronavirus
[1] = target: Ubiquitin carboxyl-terminal hydrolase 7 (Homo sapiens, UniProt Q93009); assay: Inhibition of human USP7 using Ub-rhodamine 110 as substrate at 31 uM
Sequence of Ubiquitin carboxyl-terminal hydrolase 7 (Q93009 whole entry, looked up): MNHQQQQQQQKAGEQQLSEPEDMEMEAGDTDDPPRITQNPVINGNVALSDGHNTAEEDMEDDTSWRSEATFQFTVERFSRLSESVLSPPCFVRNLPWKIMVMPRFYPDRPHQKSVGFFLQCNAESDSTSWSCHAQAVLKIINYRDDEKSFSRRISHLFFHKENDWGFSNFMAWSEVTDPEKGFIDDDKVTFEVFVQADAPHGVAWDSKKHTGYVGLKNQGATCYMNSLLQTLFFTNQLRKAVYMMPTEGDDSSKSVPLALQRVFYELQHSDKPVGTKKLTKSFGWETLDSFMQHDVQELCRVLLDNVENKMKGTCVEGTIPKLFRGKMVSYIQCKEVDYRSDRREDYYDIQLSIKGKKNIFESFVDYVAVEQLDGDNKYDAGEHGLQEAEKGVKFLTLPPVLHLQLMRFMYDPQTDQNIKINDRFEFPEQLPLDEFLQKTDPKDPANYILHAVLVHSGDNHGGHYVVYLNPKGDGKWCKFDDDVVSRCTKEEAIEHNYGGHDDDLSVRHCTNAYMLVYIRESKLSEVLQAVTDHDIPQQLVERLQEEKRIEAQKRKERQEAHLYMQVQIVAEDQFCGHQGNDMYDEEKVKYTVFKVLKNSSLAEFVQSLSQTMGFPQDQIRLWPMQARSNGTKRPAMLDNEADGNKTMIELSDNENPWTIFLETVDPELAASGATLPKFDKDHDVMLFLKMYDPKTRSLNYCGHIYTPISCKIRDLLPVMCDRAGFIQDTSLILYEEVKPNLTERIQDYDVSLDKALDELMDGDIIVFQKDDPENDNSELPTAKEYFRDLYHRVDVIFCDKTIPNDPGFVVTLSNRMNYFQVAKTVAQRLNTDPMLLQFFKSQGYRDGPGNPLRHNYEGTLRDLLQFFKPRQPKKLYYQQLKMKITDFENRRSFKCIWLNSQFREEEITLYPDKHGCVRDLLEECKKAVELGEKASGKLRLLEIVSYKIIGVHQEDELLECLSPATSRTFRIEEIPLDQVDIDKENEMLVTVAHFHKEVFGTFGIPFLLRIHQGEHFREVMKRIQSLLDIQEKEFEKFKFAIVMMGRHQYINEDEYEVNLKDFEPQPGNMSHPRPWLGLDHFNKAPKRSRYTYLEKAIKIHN

[2] = Therapeutic index, ratio of CC50 for african green monkey Vero E6 cells to EC50 for SARS coronavirus infected in african green monkey Vero E6 cells; assay type: cell-based; conditions: read-out: Ratio CC50/EC50
[3] = target: T1, Ubiquitin carboxyl-terminal hydrolase 2 (Homo sapiens) (UniProt O75604); assay: Inhibition of human USP2 using Ub-rhodamine 110 as substrate at 31 uM
T1 sequence (whole entry): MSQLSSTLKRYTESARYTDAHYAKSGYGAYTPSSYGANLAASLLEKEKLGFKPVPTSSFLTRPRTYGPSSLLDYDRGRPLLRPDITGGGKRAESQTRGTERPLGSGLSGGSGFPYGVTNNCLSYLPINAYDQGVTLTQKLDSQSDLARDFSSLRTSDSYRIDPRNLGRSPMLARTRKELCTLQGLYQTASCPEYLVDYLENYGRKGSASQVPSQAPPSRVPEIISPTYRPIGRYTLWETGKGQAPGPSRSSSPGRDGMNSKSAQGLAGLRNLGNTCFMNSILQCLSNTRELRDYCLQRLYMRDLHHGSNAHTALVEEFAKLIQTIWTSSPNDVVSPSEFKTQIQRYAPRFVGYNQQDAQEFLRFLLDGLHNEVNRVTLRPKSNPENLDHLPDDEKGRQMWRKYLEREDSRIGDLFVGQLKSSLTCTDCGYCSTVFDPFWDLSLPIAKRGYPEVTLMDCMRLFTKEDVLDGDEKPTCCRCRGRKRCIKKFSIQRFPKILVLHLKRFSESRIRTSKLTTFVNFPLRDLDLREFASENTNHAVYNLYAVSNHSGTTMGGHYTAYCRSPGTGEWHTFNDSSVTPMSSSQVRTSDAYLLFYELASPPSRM

[4] = target: T2, Ubiquitin carboxyl-terminal hydrolase isozyme L1 (Homo sapiens, UniProt P09936); assay: Inhibition of human UCHL1
T2 sequence (P09936 whole entry): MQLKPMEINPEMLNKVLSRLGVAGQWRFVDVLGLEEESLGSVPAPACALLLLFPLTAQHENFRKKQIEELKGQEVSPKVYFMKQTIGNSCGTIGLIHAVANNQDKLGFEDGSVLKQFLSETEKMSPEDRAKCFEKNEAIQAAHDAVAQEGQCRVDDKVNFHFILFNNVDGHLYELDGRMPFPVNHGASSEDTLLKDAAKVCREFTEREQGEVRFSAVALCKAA

[5] = target: T3, Sentrin-specific protease 8 (Homo sapiens) (UniProt Q96LD8); assay: Inhibition of human DEN1 using Nedd8-EKL as substrate at 31 uM
T3 sequence (whole entry): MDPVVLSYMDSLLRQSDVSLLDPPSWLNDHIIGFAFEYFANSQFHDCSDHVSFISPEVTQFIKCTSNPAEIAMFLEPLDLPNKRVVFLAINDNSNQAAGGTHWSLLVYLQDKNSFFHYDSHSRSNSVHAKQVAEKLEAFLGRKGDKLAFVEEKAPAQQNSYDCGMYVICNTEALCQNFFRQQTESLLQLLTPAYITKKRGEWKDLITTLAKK

[6] = Cytotoxicity against african green monkey Vero E6 cells assessed as cell viability after 48 hrs by Cell Titer-Glo luminescent assay; assay type: cell-based; conditions: chlorocebus sabaeus
[7] = target: Ubiquitin carboxyl-terminal hydrolase 20 (Homo sapiens, UniProt Q9Y2K6); assay: Inhibition of human USP20 using Ub-rhodamine 110 as substrate
Sequence of Ubiquitin carboxyl-terminal hydrolase 20 (Q9Y2K6 whole entry): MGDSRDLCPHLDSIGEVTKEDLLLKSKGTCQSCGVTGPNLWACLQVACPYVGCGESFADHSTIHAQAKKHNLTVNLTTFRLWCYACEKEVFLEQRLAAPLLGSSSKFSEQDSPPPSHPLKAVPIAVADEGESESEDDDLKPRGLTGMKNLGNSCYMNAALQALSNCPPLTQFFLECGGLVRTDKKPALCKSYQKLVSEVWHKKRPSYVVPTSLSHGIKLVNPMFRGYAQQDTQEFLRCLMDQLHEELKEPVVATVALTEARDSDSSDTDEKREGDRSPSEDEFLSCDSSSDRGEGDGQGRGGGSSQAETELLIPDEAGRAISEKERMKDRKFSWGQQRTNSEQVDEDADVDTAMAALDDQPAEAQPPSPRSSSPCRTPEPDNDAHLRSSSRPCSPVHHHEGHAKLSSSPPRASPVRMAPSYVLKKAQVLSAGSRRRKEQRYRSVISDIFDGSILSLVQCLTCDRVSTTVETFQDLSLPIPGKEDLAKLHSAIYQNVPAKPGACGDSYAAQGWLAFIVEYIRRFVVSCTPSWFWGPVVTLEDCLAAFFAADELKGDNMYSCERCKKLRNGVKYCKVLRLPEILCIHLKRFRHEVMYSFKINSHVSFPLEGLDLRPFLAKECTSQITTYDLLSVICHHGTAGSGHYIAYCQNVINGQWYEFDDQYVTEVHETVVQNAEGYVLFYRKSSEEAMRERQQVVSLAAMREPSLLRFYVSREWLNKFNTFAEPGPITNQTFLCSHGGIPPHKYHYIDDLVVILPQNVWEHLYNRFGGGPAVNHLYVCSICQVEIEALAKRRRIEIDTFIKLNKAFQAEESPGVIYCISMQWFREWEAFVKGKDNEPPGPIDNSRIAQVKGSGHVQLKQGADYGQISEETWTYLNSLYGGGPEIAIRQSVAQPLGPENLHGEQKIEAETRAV

[8] = target: T4, Ubiquitin carboxyl-terminal hydrolase 8 (Homo sapiens, UniProt P40818); assay: Inhibition of human USP8 using Ub-rhodamine 110 as substrate
T4 sequence (P40818 whole entry): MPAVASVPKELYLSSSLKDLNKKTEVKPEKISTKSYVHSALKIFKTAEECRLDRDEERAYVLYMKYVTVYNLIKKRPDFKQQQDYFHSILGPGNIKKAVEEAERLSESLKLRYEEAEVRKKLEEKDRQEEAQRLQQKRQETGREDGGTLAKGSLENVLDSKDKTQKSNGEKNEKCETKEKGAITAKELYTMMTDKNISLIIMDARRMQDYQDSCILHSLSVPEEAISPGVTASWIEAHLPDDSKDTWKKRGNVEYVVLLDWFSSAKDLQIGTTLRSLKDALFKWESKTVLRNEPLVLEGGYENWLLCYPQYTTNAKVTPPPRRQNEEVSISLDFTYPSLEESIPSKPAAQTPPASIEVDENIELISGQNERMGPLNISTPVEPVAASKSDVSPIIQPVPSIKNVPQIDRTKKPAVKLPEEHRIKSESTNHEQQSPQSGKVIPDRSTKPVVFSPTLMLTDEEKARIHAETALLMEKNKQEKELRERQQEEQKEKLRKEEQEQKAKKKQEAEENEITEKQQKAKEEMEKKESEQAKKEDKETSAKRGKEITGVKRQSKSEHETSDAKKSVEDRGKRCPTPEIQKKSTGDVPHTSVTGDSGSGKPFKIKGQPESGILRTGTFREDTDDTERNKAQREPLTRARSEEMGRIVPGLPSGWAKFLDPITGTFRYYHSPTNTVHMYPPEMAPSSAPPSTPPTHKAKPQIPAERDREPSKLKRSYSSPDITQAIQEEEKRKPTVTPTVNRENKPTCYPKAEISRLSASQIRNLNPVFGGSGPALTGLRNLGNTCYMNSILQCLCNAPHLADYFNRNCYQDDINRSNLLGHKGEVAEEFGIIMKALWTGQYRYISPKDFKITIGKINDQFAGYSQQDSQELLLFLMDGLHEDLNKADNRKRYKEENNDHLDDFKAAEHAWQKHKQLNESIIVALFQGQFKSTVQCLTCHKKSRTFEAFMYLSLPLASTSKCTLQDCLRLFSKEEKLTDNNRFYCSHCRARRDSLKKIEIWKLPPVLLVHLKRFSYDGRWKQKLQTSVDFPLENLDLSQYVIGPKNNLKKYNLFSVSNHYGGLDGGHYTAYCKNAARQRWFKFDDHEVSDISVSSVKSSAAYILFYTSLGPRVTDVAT

[9] = target: T5, Sentrin-specific protease 8 (Homo sapiens, UniProt Q96LD8); assay: Inhibition of human DEN1 using Nedd8-EKL as substrate
T5 sequence (Q96LD8 whole entry): T3 sequence (whole entry)

[10] = target: T6, Ubiquitin carboxyl-terminal hydrolase 8 (Homo sapiens) (UniProt P40818); assay: Inhibition of human USP8 using Ub-rhodamine 110 as substrate at 31 uM
T6 sequence (whole entry): T4 sequence (P40818 whole entry)

Liver = assay: Half life in mouse liver microsomes at 1 uM; assay type: ADME

Structure (SMILES) | EC50 (SARS-CoV) [µM] | inhibition [1] [%] | selectivity ratio [2] | inhibition [3] [%] | IC50 [4] | inhibition [5] [%] | CC50 [6] [µM] | IC50 ([7]; read-out: IC50) [µM] | IC50 [8] [µM] | IC50 [9] | inhibition [10] [%] | t1/2 (Liver) [min] | IC50 [7]
C[C@H](c1cccc2ccccc12)N1CCC(C(=O)NCc2ccc(F)cc2)CC1 | 11.6 | < 10 | > 8.6 | < 10 | Not Active | < 10 | > 100 | > 100 | > 100 | Not Active | 10 |  | 
CC(=O)Nc1cccc(CNC(=O)C2CCN([C@H](C)c3cccc4ccccc34)CC2)c1 | 8.3 | 10 | > 12 | 10 | Not Active | < 10 | > 100 | > 100 | > 100 | Not Active | 10 | 7 | 
C[C@H](c1cccc2ccccc12)N1CCC(C(=O)NCc2ccc3c(c2)OCO3)CC1 | 12.8 | < 10 |  | < 10 | Not Active | < 10 | > 100 |  | > 100 | Not Active | 10 | 1.6 | Not Active
C[C@H](c1cccc2ccccc12)N1CCC(C(=O)NCc2cccc(F)c2)CC1 | 5.4 | < 10 | > 18.5 | < 10 | Not Active | < 10 | > 100 | > 100 | > 100 | Not Active | 10 | 2.8 | 
